The values that follow come from patent US20250340551A1, “SMALL MOLECULE MODULATORS OF STAT6” (Gilead Sciences, Inc., priority 2024, published 2025).

One may read the Emax as the size of the effect at its maximum, as opposed to the concentration needed. Broadly, the EC50 is the midpoint of the concentration-response curve. The low end stands for higher potency in that assay, the high end for lower potency in that assay.

SMILES strings stand for the structures. Bounds are passed on as bounds.

The test system of one assay is Eotaxin-3 (CCL26) release in human whole blood stimulated with IL-4. In words: Human whole blood eotaxin-3 assay (IL-4 stimulated, Eotaxin-3 release). In kind it is cell-based. The settings on record: Homo sapiens, 48 h. How it is done: This was a human whole blood assay using recombinant human Interleukin 4 to stimulate the blood and measuring the ability of the test compounds to inhibit eotaxin-3 release. The biological activities of the test compounds have been tested in human whole blood stimulated with IL-4 measuring Eotaxin-3 release. The test compounds were added to 384 well clear flat-bottom plate in a 4-fold serial dilution in triplicates using a liquid handler. Human whole blood stabilized in lithium-heparin tubes was added in a volume of 65 μL per well, resulting in a final DMSO concentration of 0.5%. The plate is incubated for 2 h at 37° C. under 5% CO2/95% air. Subsequently, 5 μL of recombinant human IL-4 (R&D Systems, cat #204-ILB) was added to the wells to a final concentration of 400 pM. The plate was incubated for 48 h at 37° C. under 5% CO2/95% air. The plate was spun down for 10 minutes at 500×g and 20 μL supernatant was harvested and transferred to a 384 well v-bottom plate using a liquid handler and stored at −20° C. until further analysis. 10 μL supernatant was used to measure the level of Eotaxin-3 (CCL26) using Human Eotaxin-3 MSD kit from Mesocsale (Cat #K251UEK-4). The assay was performed according to the manufacture instructions.
The data from the human whole blood eotaxin-3 assay is shown below for Examples 1u2, 1x1, 1af26, and 1af36 (where the effect in % is plotted against the test concentration in M on a log-scale).
In the case of `[2H]C([2H])([2H])N(C(=O)c1cnc(C2=CCN(Cc3cc4c(-c5ccc(N)nc5C#N)ccnc4n3C)CC2)nc1)C([2H])([2H])[2H]` [Example 1z15, 2-(1-((4-(6-amino-2-cyanopyridin-3-yl)-1-methyl-1H-pyrrolo[2,3-b]pyridin-2-yl)methyl)-1,2,3,6-tetrahydropyridin-4-yl)-N,N-bis(methyl-d3)pyrimidine-5-carboxamide], the Emax is under 20%.
The same measure, in the same setting: to `[2H]C([2H])([2H])N(C(=O)c1ccc(C2CCN([C@@H](C)c3cc4c(-c5cnc(N)cc5C#N)ccnc4n3C)CC2)cc1)C([2H])([2H])[2H]` [Example 1af70, (S)-4-(1-(1-(4-(6-amino-4-cyanopyridin-3-yl)-1-methyl-1H-pyrrolo[2,3-b]pyridin-2-yl)ethyl)piperidin-4-yl)-N,N-bis(methyl-d3)benzamide] belongs 30 to 40%; to `CNc1ccc(-c2ccnc3c2cc(CN2CC[C@H](c4ccc(C(=O)N(C)C)cc4)C[C@H]2C)n3C)nc1` (single isomer, unassigned) [Example 1o29], under 20%.
In turn, `CNc1ccc(-c2ccnc3c2cc(CN2CCN(c4ccc(C(=O)N(C)C)cn4)CC2)n3C)nn1` [Example 1p9, N,N-Dimethyl-6-[4-[[1-methyl-4-[6-(methylamino)pyridazin-3-yl]pyrrolo[2,3-b]pyridin-2-yl]methyl]piperazin-1-yl]pyridine-3-carboxamide] gave an Emax of under 20%.
Regarding `CNc1ccc(-c2ccnc3c2cc(CN2CC=C(c4ccc(C(=O)N(C)C)cn4)CC2)n3C)nn1` [Example 1p8, N,N-Dimethyl-6-[1-[[1-methyl-4-[6-(methylamino)pyridazin-3-yl]pyrrolo[2,3-b]pyridin-2-yl]methyl]-3,6-dihydro-2H-pyridin-4-yl]pyridine-3-carboxamide], the Emax is under 20%.
The same measure, in the same setting: next, `CN(C)C(=O)c1ncc(C2=CCN(Cc3cc4c(-c5ccc(N)nn5)ccnc4n3C)CC2)cn1` [Example 1z21, 5-(1-((4-(6-aminopyridazin-3-yl)-1-methyl-1H-pyrrolo[2,3-b]pyridin-2-yl)methyl)-1,2,3,6-tetrahydropyridin-4-yl)-N,N-dimethylpyrimidine-2-carboxamide]: 20 to 30%.

The same assay, now with this note: Homo sapiens, Hec50, 48 h.
For `Cc1cc(C(=O)N(C)C)cc(F)c1C1=CCN([C@H](C)c2cc3c(-c4ccc(N)cn4)ccnc3n2C)CC1` [Example 1z33, (R)-4-(1-(1-(4-(5-aminopyridin-2-yl)-1-methyl-1H-pyrrolo[2,3-b]pyridin-2-yl)ethyl)-1,2,3,6-tetrahydropyridin-4-yl)-3-fluoro-N,N,5-trimethylbenzamide], the EC50 came out at 431 nM.
On the same count and under the same terms, to `[2H]C([2H])([2H])N(C(=O)c1ccc(N2CCN(Cc3cc4c(-c5ccc(NC)nn5)ccnc4n3C)CC2)c(C)c1)C([2H])([2H])[2H]` [Example 1p4, 3-Methyl-4-[4-[[1-methyl-4-[6-(methylamino)pyridazin-3-yl]pyrrolo[2,3-b]pyridin-2-yl]methyl]piperazin-1-yl]-N,N-bis(trideuteriomethyl)benzamide] belongs 13300 nM.
Same read-out and setting: to `Cc1cc(C(=O)N(C)C)cc(F)c1C1=CCN(C(C)c2cc3c(-c4ccc(N)cn4)ccnc3n2C)CC1` (centres unmarked) [Example 1z31, 4-(1-(1-(4-(5-aminopyridin-2-yl)-1-methyl-1H-pyrrolo[2,3-b]pyridin-2-yl)ethyl)-1,2,3,6-tetrahydropyridin-4-yl)-3-fluoro-N,N,5-trimethylbenzamide] belongs 62.8 nM.
On the same count and under the same terms, to `CN(C)C(=O)c1ccc(C2CCN(Cc3cc4c(-c5ccc(N)c(C(=O)O)n5)ccnc4n3C)CC2)cc1` [Example 1k79, 3-Amino-6-[2-[[4-[4-(dimethylcarbamoyl)phenyl]-1-piperidyl]methyl]-1-methyl-pyrrolo[2,3-b]pyridin-4-yl]pyridine-2-carboxylic acid] belongs 7170 nM; to `CNc1ccc(-c2ccnc3c2cc(CN2CC=C(c4c(C)cc(C(=O)N(C)C)cc4F)CC2)n3C)nn1` [Example 1p17, 3-Fluoro-N,N,5-trimethyl-4-[1-[[1-methyl-4-[6-(methylamino)pyridazin-3-yl]pyrrolo[2,3-b]pyridin-2-yl]methyl]-3,6-dihydro-2H-pyridin-4-yl]benzamide], 94 nM; to `CN(C)C(=O)c1ccc(C2=CCN(Cc3cc4c(-c5ccc(N)nc5)ccnc4n3C)CC2)c(C2CC2)c1` [Example 1z23, 4-(1-((4-(6-aminopyridin-3-yl)-1-methyl-1H-pyrrolo[2,3-b]pyridin-2-yl)methyl)-1,2,3,6-tetrahydropyridin-4-yl)-3-cyclopropyl-N,N-dimethylbenzamide], 853 nM.
On to `CNc1ccc(-c2ccnc3c2cc([C@H](C)N2CC=C(c4c(C)cc(C(=O)N(C)C)cc4F)CC2)n3C)nc1` [Example 1z40, (S)-3-fluoro-N,N,5-trimethyl-4-(1-(1-(1-methyl-4-(5-(methylamino)pyridin-2-yl)-1H-pyrrolo[2,3-b]pyridin-2-yl)ethyl)-1,2,3,6-tetrahydropyridin-4-yl)benzamide], for which the EC50 was determined as 3290 nM.
In turn, `CN(C)C(=O)c1cc(F)c(C2=CCN(Cc3cc4c(-c5ccc(N)nc5C#N)ccnc4n3C)CC2)c(F)c1` [Example 1z42, 4-(1-((4-(6-amino-2-cyanopyridin-3-yl)-1-methyl-1H-pyrrolo[2,3-b]pyridin-2-yl)methyl)-1,2,3,6-tetrahydropyridin-4-yl)-3,5-difluoro-N,N-dimethylbenzamide] came in with an EC50 of 97.3 nM.
Same read-out and setting: to `[2H]C([2H])([2H])N(C(=O)c1ccc(C2=CCN([C@@H](C)c3cc4c(-c5cnc(N)c(F)c5)ccnc4n3C)CC2)cc1)C([2H])([2H])[2H]` [Example 1af56, (S)-4-(1-(1-(4-(6-Amino-5-fluoropyridin-3-yl)-1-methyl-1H-pyrrolo[2,3-b]pyridin-2-yl)ethyl)-1,2,3,6-tetrahydropyridin-4-yl)-N,N-bis(methyl-d3)benzamide] belongs 726 nM; to `[2H]C([2H])([2H])N(C(=O)c1ccc(C2CCN([C@H](C)c3cc4c(-c5ccc(N)cn5)ccnc4n3C)CC2)c(C)c1)C([2H])([2H])[2H]` [Example 1af42, (R)-4-(1-(1-(4-(5-amino-pyridin-2-yl)-1-methyl-1H-pyrrolo[2,3-b]pyridin-2-yl)ethyl)piperidin-4-yl)-3-methyl-N,N-bis(methyl-d3)benzamide], 1400 nM; to `Cc1cc(C(=O)N(C)C)cnc1C1=CCN(Cc2cc3c(-c4ccc(N)nn4)ccnc3n2C)CC1` [Example 1ae22, 1′-((4-(6-Aminopyridazin-3-yl)-1-methyl-1H-pyrrolo[2,3-b]pyridin-2-yl)methyl)-N,N,3-trimethyl-1′,2′,3′,6′-tetrahydro-[2,4′-bipyridine]-5-carboxamide], 392 nM.
The molecule `[2H]C([2H])([2H])N(C(=O)c1cc(C)c(C2=CCN(Cc3cc4c(-c5ccc(NC)nn5)ccnc4n3C)CC2)c(F)c1)C([2H])([2H])[2H]` [Example 1z34, 3-fluoro-5-methyl-N,N-bis(methyl-d3)-4-(1-((1-methyl-4-(6-(methylamino)pyridazin-3-yl)-1H-pyrrolo[2,3-b]pyridin-2-yl)methyl)-1,2,3,6-tetrahydropyridin-4-yl)benzamide] yielded a concentration for a half-maximal effect (EC50) of 132 nM.
`Cc1cc(C(=O)N(C)C)cc(F)c1C1=CCN([C@@H](C)c2cc3c(-c4ccc(N)cn4)ccnc3n2C)CC1` [Example 1z32, (S)-4-(1-(1-(4-(5-aminopyridin-2-yl)-1-methyl-1H-pyrrolo[2,3-b]pyridin-2-yl)ethyl)-1,2,3,6-tetrahydropyridin-4-yl)-3-fluoro-N,N,5-trimethylbenzamide] yielded an EC50 of 37.6 nM.
For the molecule `[2H]C([2H])([2H])N(C(=O)c1cc(C)c(C2=CCN(Cc3cc4c(-c5ccc(N)nn5)ccnc4n3C)CC2)c(F)c1)C([2H])([2H])[2H]` [Example 1z20, 4-(1-((4-(6-aminopyridazin-3-yl)-1-methyl-1H-pyrrolo[2,3-b]pyridin-2-yl)methyl)-1,2,3,6-tetrahydropyridin-4-yl)-3-fluoro-5-methyl-N,N-bis(methyl-d3)benzamide], a half-maximal effect (EC50) was put at 53.3 nM.
Same read-out and setting: to `[2H]C([2H])([2H])N(C(=O)c1ccc(C2=CCN([C@@H](C)c3cc4c(-c5cnc(N)cc5F)ccnc4n3C)CC2)cc1)C([2H])([2H])[2H]` [Example 1af55, (S)-4-(1-(1-(4-(6-Amino-4-fluoropyridin-3-yl)-1-methyl-1H-pyrrolo[2,3-b]pyridin-2-yl)ethyl)-1,2,3,6-tetrahydropyridin-4-yl)-N,N-bis(methyl-d3)benzamide] belongs 426 nM; to `Cc1cc(C(=O)N(C)C)cc(F)c1C1=CCN([C@H](C)c2cc3c(-c4ccc(N)nc4)ccnc3n2C)CC1` [Example 1z30, (R)-4-(1-(1-(4-(6-aminopyridin-3-yl)-1-methyl-1H-pyrrolo[2,3-b]pyridin-2-yl)ethyl)-1,2,3,6-tetrahydropyridin-4-yl)-3-fluoro-N,N,5-trimethylbenzamide], 10.2 nM.
On the same count and under the same terms, next, `[2H]C([2H])([2H])N(C(=O)c1ccc(C2=CCN([C@@H](C)c3cc4c(-c5ncc(N)cc5C)ccnc4n3C)CC2)cc1)C([2H])([2H])[2H]` [Example 1af53, (S)-4-(1-(1-(4-(5-Amino-3-methylpyridin-2-yl)-1-methyl-1H-pyrrolo[2,3-b]pyridin-2-yl)ethyl)-1,2,3,6-tetrahydropyridin-4-yl)-N,N-bis(methyl-d3)benzamide]: 765 nM.
